The values that follow come from US20080227637A1, “A Method of Controlling Weeds” (BASF Aktiengesellschaft, priority 2005, published 2008).

Molecules are shown by their SMILES.

What all share (assay type): in vivo
Test [1] has as its system Glyphosate resistant cotton. Briefly: Field test, control of glyphosate resistant cotton in post-directed treatment. Conditions: glyphosate 560 g/ha. As for the experimental part:
(§1) In the examples below, the value E which is to be expected if the activity of the individual compounds is just additive was calculated using the method of S. R. Colby (1967) “Calculating synergistic and antagonistic responses of herbicide combinations”, Weeds 15, p. 22 ff.
(§2) where X=effect in percent using active compound A at an application rate a; Y=effect in percent using active compound B at an application rate b; E=expected effect (in %) of A+B at application rates a+b.
(§3) If the experimentally determined value is higher than the value E calculated according to Colby's equation, a synergistic effect is present.
(§4) The phenyluracils I and/or the other active ingredients according to the present invention were formulated in a suitable way, either separately or in mixture, e.g. as emulsifiable concentrates (EC), soluble concentrates (SL), suspo-emulsions (SE), suspension concentrates (SC) or water-dispersible granules (WG). The formulation(s) were suspended or emulsified in water as a distribution medium immediately prior to spraying. Afterwards, the aqueous mixture was evenly sprayed on the test plots or plant pots by means of finely distributing nozzles.
(§5) As regards the field tests, the test plots were of uniform size (typically between 14 and 37 square meters, each) and the distribution of treated and untreated plots was organized according to a randomised bloc design. […]

Test [2] concerns Glyphosate resistant marestail (ERICA). The test is described as follows: Greenhouse test, post-emergence control of glyphosate resistant marestail. To be noted: use rate 420 g/ha.
Source text: as §4
(§6) For the greenhouse tests, plants were grown in pots to a height between 3 and 6 cm, and then treated (post-emergence). During the test period of 29 days, the plants were tended.
(§7) The evaluation of the damage caused by the phenyluracils I and/or the other active ingredients according to the present invention was carried out using a scale from 0 to 100%, compared to the untreated control plots. Here, 0 means no damage and 100 means complete destruction of the plants of a respective weed or crop species.
(§8) In this example, glyphosate (isopropylammonium salt) was formulated as a 353 g/l SL and Phenyluracil I.7 as a 120 g/l EC. Prior to application, the formulated active ingredients were tank-mixed with an aqueous 187 l/ha spray solution which contained, in addition, 15 g/l of ammonium sulphate and 2.5 g/l of non-ionic surfactant.

For test [3], the system named is Glyphosate susceptible marestail (ERICA). Briefly: Greenhouse test, post-emergence control of glyphosate susceptible marestail. Conditions: use rate 420 g/ha.
Source text: as §4, §6, §7, §8

Test [4] has as its system glyphosate resistant corn. The test is described as follows: Field test, control of volunteer glyphosate resistant corn by pre-emergence application. Conditions: Imazethapyr 70 g/ha, pre-emergence to soybean crop. On the procedure:
as §1, §2, §3, §4, §5

Consider `O=C(O)CNCP(=O)(O)O` [Glyphosate, glyphosate], for which the “Glyphosate resistant cotton at 3 DAT (% control), Found” value in test [1] was 0%. Moreover, the “Glyphosate resistant marestail (ERICA) at 29 DAT (% herbicide control)” value in test [2] was 0%. Further, in test [3], the “Glyphosate susceptible marestail (ERICA) at 29 DAT (% herbicide control)” value stood at 98%.

Regarding `CCc1cnc(C2=NC(C)(C(C)C)C(=O)N2)c(C(=O)O)c1` (stereo not shown) [Imazethapyr, imazethapyr], in test [4], the “Control of glyphosate resistant corn at 29 DAT (% control), Found” value worked out at 23%.
